Source: patent EP0548931A1, “Material for controlling pests” (SUMITOMO CHEMICAL COMPANY, LIMITED, priority 1991, dated 1993)

How the values were obtained:
sweetpotato whiteflies = assay: Test Example 11: yellow polyethylene sheet (Production Example 9), pest-controlling effect, count of adults; format: in vivo, Bemisia tabaci
Procedure: (§1) Ninety-eight parts by weight of a polyethylene resin (Sumikathene®; a registered trade mark of Sumitomo Chemical Co., Ltd.), 1 part by weight of pyriproxyfen, a juvenile hormone-like compound, and 1 part by weight of a polyethylene colored master batch for yellow coloration (SPEM 305 produced by Sumika Color Co., pigment content: 12 wt.%) are kneaded with a pressure kneader and then pelletized. The resulting pellet is extruded through an extruder equipped with a T-dies at 160° to 180°C to obtain a sheet-form material for controlling pests of 1 mm in thickness. A sheet-like material for controlling pests prepared according to Production Example 9 was formed into a size of 15 cm x 15 cm. It was set at the same height as that of a container (80 cm x 112 cm x 45 cm) in which tomato having greenhouse whiteflies parasitized thereon had been planted. On the other hand, a yellow film containing no insect growth regulator was set as a control in the same manner as in setting the above material for controlling pests. On the predetermined day, the number of greenhouse whitefly adults parasitized on the tomato was counted. In the same manner as in Test Example 10, the pest-controlling effect on sweetpotato whiteflies was examined.

sweetpotato whitefly [1] = assay: Test Example 5: gravure-printed yellow Kent paper (Production Example 4) in net room with cabbages, count of larvae; format: in vivo, Bemisia tabaci; settings: after 1 month; larvae parasitized on five randomly selected cabbages; yellow Kent paper 10 cm x 2 m, 5 g/m²; 800 adults released
Procedure: Five parts of the insect growth regulator is dissolved in 65 parts of a vegetable oil, and then 20 parts of a mineral oil and 10 parts of a surface active agent are added thereto and mixed. The resulting solution is applied to a roll of yellow Kent paper of 50 cm in width and 2,000 m in length by gravure printing to obtain a material for controlling pests containing 5 g/m² of the active ingredient. […] A material for controlling pests prepared according to Production Example 4 with pyriproxyfen (insect growth regulator), a cotton seed oil (vegetable oil), tetradecane (mineral oil) and Span 85® (surface active agent produced by ICI Americas Inc.) was formed into a size of 10 cm x 2 m. It was set at a height of 30 cm above the floor surface between the rows of cabbages. Eight hundred adults of sweetpotato whitefly were released in the net room. After 1 month, the number of larvae parasitized on five randomly selected cabbages was counted.

sweetpotato whitefly [2] = assay: Test Example 4: yellow cloth with cotton seed oil solution in net cage, hatching inhibitory effect on eggs; format: in vivo, Bemisia tabaci; settings: after 48 hours, kidney bean
Procedure: Materials for controlling pests containing pyriproxyfen in amounts of 5.3 mg/cm², 2.7 mg/cm² and 0.5 mg/cm², respectively, were prepared by dissolving the corresponding amounts of pyriproxyfen in a cotton seed oil and coating every solution thus obtained onto a yellow cloth of 15 cm x 15 cm in size to allow the cloth to absorb the solution. Every cloth was set on one wall surface of a nylon net cage (30 cm x 30 cm x 30 cm). Kidney bean planted in a pot was placed at the center of the cage, and sweetpotato whitefly adults were released in the cage. After 48 hours, the hatching inhibitory effect on eggs from the adults was examined.

greenhouse whiteflies = assay: Test Example 10: yellow polyethylene sheet (Production Example 9) set beside tomato, count of adults; format: in vivo, Trialeurodes vaporariorum
Procedure: as §1, with “counted.” for “counted. In the same manner as in Test Example 10, the pest-controlling effect on sweetpotato whiteflies was examined.”

Thrips palmi = assay: Test Example 12: blue polyethylene sheet (Production Example 10) in glass vessel with cucumber seedlings, count of adults; format: in vivo; settings: 28° ±1°C
Text: The same procedure as in Production Example 9 is repeated except that a colored master batch for blue coloration (SPEM 510 produced by Sumika Color Co.; pigment content: 12 wt.%) replaces the colored master batch for yellow coloration. Thus, a sheet-form material for controlling pests is obtained.
Soil was placed on the bottom of a glass vessel of 70 cm x 35 cm x 35 cm in size. Three cucumber seedings, on which Thrips palmi had been parasitized, were planted at the central part of the glass vessel. After three days, the material for controlling pests prepared according to Production Example 10 was formed into a size of 15 cm x 15 cm and set at a height of 5 cm above the ground. On the other hand, the same test was carried out by setting a blue film containing no insect growth regulator, a control, in the same manner as in setting the above material for controlling pests.
On the predetermined day, the number of Thrips palmi adults parasitized on the cucumbers was counted. The tests were carried out in a room kept at 28° ±1°C.

sweetpotato whitefly [3] = assay: Test Example 8: yellow Kent paper (Production Example 7) in net cage, hatching inhibition; format: in vivo, Bemisia tabaci; settings: yellow Kent paper 15 cm x 15 cm, 0.01 g/m², cotton seed oil; eggs laid on kidney bean
Procedure: 0.01 Part of the insect growth regulator is dissolved in 99.99 parts of a vegetable oil. The resulting solution is applied to a roll of yellow Kent paper of 50 cm in width and 2,000 m in length by gravure printing to obtain material for controlling pests containing 0.01 g/m² of the active ingredient. A material for controlling pests containing pyriproxyfen (insect growth regulator) and a cotton seed oil (vegetable oil) prepared according to Production Example 7 was formed into a size of 15 cm x 15 cm. It was set on one wall surface of a nylon net cage of 30 cm x 30 cm x 30 cm in size. About 100 adults of sweetpotato whitefly were released in the cage together with kidney bean on which the adults had been parasitized. One day after release of the adults, a potted kidney bean having no adults parasitized thereon was set in the cage for oviposition. Among the eggs laid on the potted kidney bean until the next day, the number of unhatched eggs was counted.

With `CC(COc1ccc(Oc2ccccc2)cc1)Oc1ccccn1` (stereo not shown) [pyriproxyfen, 4-phenoxyphenyl 2-(2-pyridyloxy)propyl ether] the “number of sweetpotato whitefly adults (pest-controlling effect)” value (“number of sweetpotato whitefly adults” for short) (sweetpotato whiteflies; 0 days elapsed after setting) was 70, the “number of sweetpotato whitefly adults” value (sweetpotato whiteflies; 7 days elapsed after setting) was 30 and the “number of sweetpotato whitefly adults” value (sweetpotato whiteflies; 14 days elapsed after setting) was 20. For the same compound, the “number of sweetpotato whitefly adults” value (sweetpotato whiteflies; 18 days elapsed after setting) was 18, the “number of sweetpotato whitefly adults” value (sweetpotato whiteflies; 29 days elapsed after setting) was 8 and the “number of sweetpotato whitefly adults” value (sweetpotato whiteflies; 35 days elapsed after setting) was 5. For the same compound, the Number of larvae (sweetpotato whitefly [1]) was 192, the “Hatching inhibitory rate (%)” value (sweetpotato whitefly [2]; Pyriproxyfen 0.5 mg/cm² on yellow cloth) was 83.7% and the “Hatching inhibitory rate (%)” value (sweetpotato whitefly [2]; Pyriproxyfen 2.7 mg/cm² on yellow cloth) was 98.2%. For the same compound, the “Hatching inhibitory rate (%)” value (sweetpotato whitefly [2]; Pyriproxyfen 5.3 mg/cm² on yellow cloth) was 94.6%, the “number of greenhouse whitefly adults parasitized on the tomato (mean value per cup)” value (“number … (mean value per cup)” for short) (greenhouse whiteflies; 0 days elapsed after setting, yellow polyethylene sheet 1 mm, 1 part by weight pyriproxyfen, 15 cm x 15 cm) was 105 and the “number … (mean value per cup)” value (greenhouse whiteflies; 7 days elapsed after setting, yellow polyethylene sheet) was 78. The “number … (mean value per cup)” value (greenhouse whiteflies; 14 days elapsed after setting, yellow polyethylene sheet) was 75, the “number … (mean value per cup)” value (greenhouse whiteflies; 18 days elapsed after setting, yellow polyethylene sheet) was 50 and the “number … (mean value per cup)” value (greenhouse whiteflies; 28 days elapsed after setting, yellow polyethylene sheet) was 20. For the same compound, the “number … (mean value per cup)” value (greenhouse whiteflies; 35 days elapsed after setting, yellow polyethylene sheet) was 10, the “number … (mean value per cup)” value (greenhouse whiteflies; 42 days elapsed after setting, yellow polyethylene sheet) was 3 and the “number of Thrips palmi adults parasitized on the cucumbers” value (from here on “number … on the cucumbers”) (Thrips palmi; 0 days elapsed after setting, blue polyethylene sheet 15 cm x 15 cm) was 3. The “number … on the cucumbers” value (Thrips palmi; 7 days elapsed after setting, blue polyethylene sheet) was 4, the “number … on the cucumbers” value (Thrips palmi; 14 days elapsed after setting, blue polyethylene sheet) was 3 and the “number … on the cucumbers” value (Thrips palmi; 21 days elapsed after setting, blue polyethylene sheet) was 2. For the same compound, the “Hatching inhibitory rate (%)” value (sweetpotato whitefly [3]) was 100%.
